Results: patent US12565494B2, “Inhibitors of human respiratory syncytial virus and metapneumovirus” (priority 2022, dated 2026)
pEC50: −log10 of the molar value. Where two headings read alike, the source gives them in different places.

Assays:
hMPV-GFP virus = experiment: microbe, parasite or virus in culture; assay type: cell-based, Human Metapneumovirus; conditions: VERO cells, hMPV-GFP MOI=1.25, 48 hrs, GFP-expressing cells counted
Experimental: GFP expressing rgHMPV #3 p3 was generated in Dr. Buchholz's lab (Biacchesi S. et al., J Virol. 2007 June; 81(11): 6057-6067) and propagated in VERO cells (ATCC Cat #CCL-81) with a Multiplicity of Infection (MOI) of 0.1. Virus was harvested 4 days after infection by collecting cultured material and was freeze-thaw cycled in liquid nitrogen twice. Working virus stocks were generated from thawing frozen samples in 37° C. water bath, which were centrifuged at 218 g for 15 min at 4° C. 1/10 of 10×SPG (Biological Industries 06-3061-01-5A) were added and then mixed. The supernatant was aliquoted, frozen in liquid nitrogen, and then transferred to a −80° C. freezer for storage. Virus titer was determined by performing titration test in 96-well plates and calculate approximate virus titer using GFP event/well data.
Compound plates were prepared by dispensing compounds dissolved in DMSO into wells of a 384 well Corning 3985 polystyrene flat clear bottom optical imaging microplate (202.5 nL/well) using an ECHO acoustic dispenser. Each compound was tested in 10-point serial 3-fold dilution (typical final concentrations: 40,300 nM-2 nM). […] Continuous culture of VERO cells was maintained in complete culture media (OptiMEM supplemented with 2 mM GlutaMAX™ and 100 U/ml Penicillin-Streptomycin). To set up the assay, VERO cells were trypsinized with 0.25% Trypsin-EDTA until cells were dislodged, then cells were re-suspended with 1 mL FBS. Cells were spundown at 300 g for 5 minutes and cells were washed twice with culture media and counted using default parameters on ViCell. Cells were then diluted to 100,000 cells/mL (5,000 cells/50 μL) in complete culture media+TrypLE Select (80 μL/mL). hMPV-GFP virus was added to cells at 125,000 pfu/mL (MOI=1.25) and were mixed by gentle inversion. 10 μL/well of 100% DMSO was dispensed to CellTiter-Glo (CTG) assay Max_E controls wells. Cells were dispensed at 50 μL/well using Bravo and 50 μL filtered tips into compound plates. Plates were covered with MicroClime lids and loaded with 7.5 mL of assay media to minimize evaporation. Plates were lightly shaken for 10 minutes at room temperature and then incubated at 37° C. and 5% CO2 for 48 hrs. Following incubation, distinct GFP-expressing cells were counted using an Acumen imaging system with appropriate settings. A same-well CTG assay was performed by adding 10 μL/well reconstituted CellTiter-Glo reagent (Promega G7573) and plates were read on PerkinElmer Envision according to manufacturer's instructions. Raw data were loaded and analyzed in ActivityBase. Antiviral IC50 and cytotoxicity CC50 values were determined using a 4 parameter logistic fit based on the Levenberg-Marquardt algorithm. Model: 205-4 Parameter Logistic.

RSV-A2-GFP virus = experiment: microbe, parasite or virus in culture; assay type: cell-based, Human Respiratory Syncytial Virus; conditions: Calu-1 cells, RSV-A2-GFP MOI=1.2, 96 hrs, GFP-expressing cells counted
Experimental: To set up the assay, ARF vials were thawed in a 37° C. water bath and a control compound was resuspended in assay media DMEM (Dulbecco's Modified Eagle Medium) containing 2% FBS, 100 U/ml Penicillin-Streptomycin.
GFP sequence was derived from pJTI™ R4 Dest CMV N-EmGFP pA Vector (Invitrogen) and was cloned into the intergenic sequence between wild-type RSV-A2 P and M genes using standard recombineering techniques. Recombinant RSV-A2-GFP was propagated in Hep2 cells (human cells contain HeLa marker chromosomes and were derived via HeLa contamination, ATCC CCL-23) with a Multiplicity of Infection (MOI) of 0.1. Virus was harvested 3 days after infection by collecting all culture material and then freeze-thawing the mixture for 5 minutes. Working virus stocks were generated by thawing frozen viral cultures in 37° C. water bath, which were centrifuged at 218 g for 15 min at 4° C. 1/10 of 10×SPG (Biological Industries 06-3061-01-5A) were added and then mixed. The supernatant was aliquoted, frozen in liquid nitrogen, and then transferred to a −80° C. freezer for storage. Virus titer was determined by automated plaque assay in HEp-2 cells following methods described previously (Wen Z. et al.; 2019).
Calu-1 cells were purchased from ATCC (Cat #HTB-54) and were expanded in growth media (DMEM containing 10% FBS, 100 U/ml Penicillin-Streptomycin). To make ARF, cell culture media was removed and discarded and the cell layer was briefly rinsed with PBS to remove serum. 2.5 mL of TrypLE Express solution were added and cells incubated until dislodged, to which growth media was added and the cells were resuspended by gentle pipetting. Cells were counted for concentration and viability as determined by ViCell. Cells were centrifuged at RT, 300 g for 5 minutes to pellet cells. The supernatant was gently aspirated and the pellet was flicked to loosen cells. Cells were resuspended in an appropriate volume of freezing medium (DMEM containing 10% DMSO, 10% FBS, 100 U/ml Penicillin-Streptomycin) to achieve a concentration of 5×10^6 cells/mL. 1 mL aliquots of the cell suspension were transferred to freezing vials. The vials were put into an upright container in a −80° C. freezer overnight before transferring vials to liquid nitrogen for storage
Assay ready freeze-down (ARF, generation described separately) Calu-1 cells (ATCC HTB-54) were used. Compound plates were prepared by dispensing compounds dissolved in DMSO into the wells of a 384 well Corning® 3985 plate with an ECHO acoustic dispenser and compounds were tested in 10-point serial 3-fold dilution. […] To set up the assay, ARF vial(s) were thawed in a 37° C. water bath and were then resuspended into assay media (DMEM containing 2% FBS, 100 U/ml Penicillin-Streptomycin). Cells were counted using default parameters on ViCell and diluted to 20,000 cells/mL in assay media. RSV-A2-GFP virus was added to cells at 24,000 pfu/ml (MOI=1.2) and mixed by gentle inversion. 10 μL/well of 100% DMSO was dispensed as CellTiter-Glo (CTG) assay Max_E controls wells. The cells were dispensed at 50 μL/well using Bravo with 50 μL filtered tips into compound plates. Plates were covered with MicroClime lids, loaded with 7.5 mL of assay media to minimize evaporation, and were incubated at 37° C. and 5% CO2 for 96 hrs. Following incubation, distinct, GFP-expressing cells were counted using an Acumen imaging system with appropriate settings. A same-well CTG assay was performed by adding 10 μL/well reconstituted CellTiter-Glo reagent (Promega G7573) and plates were read on PerkinElmer Envision according to manufacturer's instructions. Raw data were loaded and analyzed in ActivityBase. Antiviral IC50 and cytotoxicity CC50 values were determined using a 4 parameter logistic fit based on the Levenberg-Marquardt algorithm. Model: 205-4 Parameter Logistic.

[1] = Table II Summary of Activities for hMPV, read-out: RSV EC50
[2] = Table I Summary of Activities for RSV, read-out: RSV EC50
[3] = Vero, 48 h, read-out: RSV EC50, Table II Summary of Activities for hMPV
[4] = human respiratory syncytial virus, Calu-1, 96 h, read-out: RSV EC50, Table I Summary of Activities for RSV

| Compound | pEC50 (hMPV-GFP virus; [1]) | pEC50 (RSV-A2-GFP virus; [2]) | pEC50 (hMPV-GFP virus; [3]) | pEC50 (RSV-A2-GFP virus; [4]) | pEC50 (hMPV-GFP virus; read-out: RSV EC50, Table II Summary of Activities for hMPV) |
| --- | --- | --- | --- | --- | --- |
| Cn1nc(-c2cscn2)cc1C(=O)N1C[C@@H]2[C@H](C1)[C@H]2Oc1cc(C2(N)CCC2)cc(-c2ccc(F)cc2)n1 [Example 52, ((1R,5S,6s)-6-((4-(1-aminocyclobutyl)-6-(4-fluorophenyl)pyridin-2-yl)oxy)-3-azabicyclo[3.1.0]hexan-3-yl)(1-methyl-3-(thiazol-4-yl)-1H-pyrazol-5-yl)methanone] | < 7.00 | > 8.00 |  |  |  |
| CCn1nc(-c2cscn2)cc1C(=O)N1C[C@@H]2[C@H](C1)[C@H]2Oc1cc(C(C)(C)N)cc(-c2ccc(F)cc2)n1 [Example 19, ((1R,5S,6s)-6-((4-(2-aminopropan-2-yl)-6-(4-fluorophenyl)pyridin-2-yl)oxy)-3-azabicyclo[3.1.0]hexan-3-yl)(1-ethyl-3-(thiazol-4-yl)-1H-pyrazol-5-yl)methanone] |  |  | 7.00 to 8.00 | > 8.00 |  |
| CC(O)c1nc(-c2cscn2)sc1C(=O)N1C[C@@H]2[C@H](C1)[C@H]2Oc1cc(C(C)(C)N)cc(-c2ccc(F)cc2)n1 (single isomer, unassigned; enantiomer 1) [Example 16A] |  |  |  | > 8.00 | 7.00 to 8.00 |
| Cc1nc(-c2cscn2)sc1C(=O)N1C[C@@H]2[C@H](C1)[C@H]2Oc1cc(C(C)(C)N)cc(-c2ccc(F)cc2)n1 [Example 7, ((1R,5S,6s)-6-((4-(2-aminopropan-2-yl)-6-(4-fluorophenyl)pyridin-2-yl)oxy)-3-azabicyclo[3.1.0]hexan-3-yl)(4-methyl-[2,4′-bithiazol]-5-yl)methanone] | 7.00 to 8.00 | > 8.00 |  |  |  |
| Cn1nc(-c2ncco2)cc1C(=O)N1C[C@H]2[C@H](Oc3cc(C(C)(C)N)cc(-c4ccc(F)cc4)n3)[C@@]2(C)C1 (single isomer, unassigned; enantiomer 1) [Example 44A] |  |  | 7.00 to 8.00 | > 8.00 |  |
| Cc1nc(-c2cccs2)sc1C(=O)N1C[C@@H]2[C@H](C1)[C@H]2Oc1cc(C(C)(C)N)cc(-c2ccc(F)cc2)n1 [Example 12, ((1R,5S,6s)-6-((4-(2-aminopropan-2-yl)-6-(4-fluorophenyl)pyridin-2-yl)oxy)-3-azabicyclo[3.1.0]hexan-3-yl)(4-methyl-2-(thiophen-2-yl)thiazol-5-yl)methanone] | < 7.00 | > 8.00 |  |  |  |
| Cn1nc(-c2cscn2)nc1C(=O)N1C[C@@H]2[C@H](C1)[C@H]2Oc1cc(C(C)(C)N)cc(-c2ccc(F)cc2)n1 [Example 30, ((1R,5S,6s)-6-((4-(2-aminopropan-2-yl)-6-(4-fluorophenyl)pyridin-2-yl)oxy)-3-azabicyclo[3.1.0]hexan-3-yl)(1-methyl-3-(thiazol-4-yl)-1H-1,2,4-triazol-5-yl)methanone] | < 7.00 | > 8.00 |  |  |  |
| Cn1nc(-c2cscn2)cc1C(=O)N1C[C@H]2[C@H](Oc3cc(C(C)(C)N)cc(-c4ccc(F)cc4)n3)[C@@]2(C)C1 (single isomer, unassigned; enantiomer 1) [Example 43A] |  |  | 7.00 to 8.00 | > 8.00 |  |
| Cn1nc(-c2ncsc2F)cc1C(=O)N1C[C@@H]2[C@H](C1)[C@H]2Oc1cc(C(C)(C)N)cc(-c2ccc(F)cc2)n1 [Example 20, ((1R,5S,6s)-6-((4-(2-aminopropan-2-yl)-6-(4-fluorophenyl)pyridin-2-yl)oxy)-3-azabicyclo[3.1.0]hexan-3-yl)(3-(5-fluorothiazol-4-yl)-1-methyl-1H-pyrazol-5-yl)methanone] |  |  | 7.00 to 8.00 | > 8.00 |  |
| Cc1nc(-c2ccon2)sc1C(=O)N1C[C@@H]2[C@H](C1)[C@H]2Oc1cc(C(C)(C)N)cc(-c2ccc(F)cc2)n1 [Example 5, ((1R,5S,6s)-6-((4-(2-aminopropan-2-yl)-6-(4-fluorophenyl)pyridin-2-yl)oxy)-3-azabicyclo[3.1.0]hexan-3-yl)(2-(isoxazol-3-yl)-4-methylthiazol-5-yl)methanone] | 7.00 to 8.00 | > 8.00 |  |  |  |
| Cn1nc(-c2cscn2)cc1C(=O)N1C[C@@H]2[C@H](C1)[C@H]2Oc1cc(-c2ccc(F)cc2)cc(C(C)(C)N)n1 [Example 59, ((1R,5S,6s)-6-((6-(2-aminopropan-2-yl)-4-(4-fluorophenyl)pyridin-2-yl)oxy)-3-azabicyclo[3.1.0]hexan-3-yl)(1-methyl-3-(thiazol-4-yl)-1H-pyrazol-5-yl)methanone] |  |  | < 7.00 | > 8.00 |  |
| Cn1nc(-c2cscn2)cc1C(=O)N1C[C@@H]2[C@H](C1)[C@H]2Oc1cc(C(C)(C)N)cc(N2CCC(C)(C)CC2)n1 [Example 39, ((1R,5S,6s)-6-((4-(2-aminopropan-2-yl)-6-(4,4-dimethylpiperidin-1-yl)pyridin-2-yl)oxy)-3-azabicyclo[3.1.0]hexan-3-yl)(1-methyl-3-(thiazol-4-yl)-1H-pyrazol-5-yl)methanone] | < 7.00 | > 8.00 |  |  |  |
| CC(C)(N)c1cc(O[C@H]2[C@@H]3CN(C(=O)c4sc(-c5ncco5)nc4C(F)F)C[C@@H]32)nc(-c2ccc(F)cc2)c1 [Example 15, ((1R,5S,6s)-6-((4-(2-aminopropan-2-yl)-6-(4-fluorophenyl)pyridin-2-yl)oxy)-3-azabicyclo[3.1.0]hexan-3-yl)(4-(difluoromethyl)-2-(oxazol-2-yl)thiazol-5-yl)methanone] | < 7.00 | > 8.00 |  |  |  |
